From US10376520B2, “Methods for the treatment of cardiovascular disorders” (Galapagos NV, priority 2015, dated 2019)

Tested on: RA patients
Assay: LDL determination, Study 1 (RA patients, add-on to MTX)
Assay type: in vivo, human
Method: Double-blind, placebo-controlled add on study in subjects with moderately to severely active RA who have an inadequate response to methotrexate (MTX) (oral or parenteral).
595 subjects randomized to one of 6 dose regimens of Compound 1 (dosed as a [Compound 1:HCl:3H2O]) (3 dose levels administered either once or twice daily) or placebo on top of each subject's stable dose of MTX.
Compound 1 (dosed as a [Compound 1:HCl:3H2O]) is dosed for twelve weeks once daily (q.d.) (50 mg, 100 mg or 200 mg) or twice daily (b.i.d.) (25 mg, 50 mg or 100 mg); or placebo.
At Week 12, the subjects on placebo who have not achieved 20% improvement in swollen joint count (SJC66) and tender joint count (TJC68) are re-randomized automatically to receive Compound 1 (dosed as a [Compound 1:HCl:3H2O]) either at 100 mg q.d. or 50 mg b.i.d. doses in a blinded fashion; subjects on 50 mg q.d. who have not achieved 20% improvement in SJC66 and TJC68 will be assigned to 100 mg q.d. and subjects on 25 mg b.i.d. that have not achieved a 20% improvement in SJC66 and TJC68 will be assigned to 50 mg b.i.d. Subjects who switch treatment at week 12 are handled as if they discontinued at week 12 for the purpose of statistical analysis, whereas subjects in the other groups will maintain their randomized treatment until Week 24.
The determination of [LDL]-cholesterol is made using an automated method taking advantage of the selective micellary solubilization of [LDL]-cholesterol by a nonionic detergent and the interaction of a sugar compound and lipoproteins (VLDL and chylomicrons).
When a detergent is included in the enzymatic method for cholesterol determination (cholesterol esterase, cholesterol oxidase coupling reaction), the relative reactivities of cholesterol in the lipoprotein fractions increase in this order: [HDL]<chylomicrons <VLDL <[LDL]. In the presence of Mg^2+, a sugar compound markedly reduces the enzymatic reaction of the cholesterol measurement in VLDL and chylomicrons. The combination of a sugar compound with detergent enables the selective determination of [LDL]-cholesterol in serum. (Friedewald et al., 1972; Rifai et al., 1992)
Homogeneous enzymatic colorimetric assay.
In the presence of peroxidase, the hydrogen peroxide generated reacts with 4-aminoantipyrine and Sodium N-(2-hydroxy-3-sulfopropyl)-3,5-dimethoxyaniline (HSDA) to form a purple-blue dye.
The color intensity of this dye is directly proportional to the cholesterol concentration and is measured photometrically.
Human serum and plasma samples [LDL] determination was done on a Roche/Hitachi Cobas c 701/702 system which automatically calculate the analyte concentration of each sample. Samples containing precipitates are centrifuged before performing the assay.

[1] = Study 1 12 weeks results, 200 mg q.d., week 2
[2] = Study 1 12 weeks results, 200 mg q.d., week 4
[3] = Study 1 12 weeks results, 200 mg q.d., week 8
[4] = Study 1 12 weeks results, 200 mg q.d., week 12
[5] = Study 1 12 weeks results, 2 x 25 mg b.i.d., week 1
[6] = Study 1 12 weeks results, 2 x 25 mg b.i.d., week 2
[7] = Study 1 12 weeks results, 2 x 25 mg b.i.d., week 4
[8] = Study 1 12 weeks results, 2 x 25 mg b.i.d., week 8
[9] = Study 1 12 weeks results, 2 x 25 mg b.i.d., week 12
[10] = Study 1 12 weeks results, 2 x 50 mg b.i.d., week 1
[11] = Study 1 12 weeks results, 2 x 50 mg b.i.d., week 2
[12] = Study 1 12 weeks results, 2 x 50 mg b.i.d., week 4
[13] = Study 1 12 weeks results, 2 x 50 mg b.i.d., week 8
[14] = Study 1 12 weeks results, 2 x 50 mg b.i.d., week 12
[15] = Study 1 12 weeks results, 2 x 100 mg b.i.d., week 1
[16] = Study 1 12 weeks results, 2 x 100 mg b.i.d., week 2
[17] = Study 1 12 weeks results, 2 x 100 mg b.i.d., week 4
[18] = Study 1 12 weeks results, 2 x 100 mg b.i.d., week 8
[19] = Study 1 12 weeks results, 2 x 100 mg b.i.d., week 12
[20] = Study 1 24 weeks results, continued 50 mg q.d., week 1
[21] = Study 1 24 weeks results, continued 50 mg q.d., week 2
[22] = Study 1 24 weeks results, continued 50 mg q.d., week 4
[23] = Study 1 24 weeks results, continued 50 mg q.d., week 8
[24] = Study 1 24 weeks results, continued 50 mg q.d., week 12
[25] = Study 1 24 weeks results, continued 50 mg q.d., week 16
[26] = Study 1 24 weeks results, continued 50 mg q.d., week 20
[27] = Study 1 24 weeks results, continued 50 mg q.d., week 24
[28] = Study 1 24 weeks results, continued 100 mg q.d., week 1
[29] = Study 1 24 weeks results, continued 100 mg q.d., week 2
[30] = Study 1 24 weeks results, continued 100 mg q.d., week 4
[31] = Study 1 24 weeks results, continued 100 mg q.d., week 8
[32] = Study 1 24 weeks results, continued 100 mg q.d., week 12
[33] = Study 1 24 weeks results, continued 100 mg q.d., week 16
[34] = Study 1 24 weeks results, continued 100 mg q.d., week 20
[35] = Study 1 24 weeks results, continued 100 mg q.d., week 24
[36] = Study 1 24 weeks results, continued 200 mg q.d., week 24
[37] = Study 1 24 weeks results, placebo switched to 50 mg b.i.d at week 12, week 16
[38] = Study 1 24 weeks results, placebo switched to 50 mg b.i.d at week 12, week 20
[39] = Study 1 24 weeks results, placebo switched to 50 mg b.i.d at week 12, week 24

O=C(Nc1nc2cccc(-c3ccc(CN4CCS(=O)(=O)CC4)cc3)n2n1)C1CC1 [Compound 1, cyclopropanecarboxylic acid {5-[4-(1,1-dioxo-thiomorpholin-4-ylmethyl)-phenyl]-[1,2,4]triazolo[1,5-a]pyridin-2yl}-amide]
[LDL] Mean CFB [1]: 0.11 mmol/L
[LDL] Median CFB [1]: 0.13 mmol/L
[LDL] Mean CFB [2]: 0.13 mmol/L
[LDL] Median CFB [2]: 0.09 mmol/L
[LDL] Mean CFB [3]: 0.16 mmol/L
[LDL] Median CFB [3]: 0.18 mmol/L
[LDL] Mean CFB [4]: 0.19 mmol/L
[LDL] Median CFB [4]: 0.14 mmol/L
[LDL] Mean CFB [5]: 0.04 mmol/L
[LDL] Median CFB [5]: 0.05 mmol/L
[LDL] Mean CFB [6]: 0.04 mmol/L
[LDL] Median CFB [6]: 0.09 mmol/L
[LDL] Mean CFB [7]: -0.01 mmol/L
[LDL] Median CFB [7]: -0.01 mmol/L
[LDL] Mean CFB [8]: -0.05 mmol/L
[LDL] Median CFB [8]: 0.01 mmol/L
[LDL] Mean CFB [9]: 0.07 mmol/L
[LDL] Median CFB [9]: 0.05 mmol/L
[LDL] Mean CFB [10]: 0.10 mmol/L
[LDL] Median CFB [10]: 0.17 mmol/L
[LDL] Mean CFB [11]: 0.04 mmol/L
[LDL] Median CFB [11]: 0.1 mmol/L
[LDL] Mean CFB [12]: 0.14 mmol/L
[LDL] Median CFB [12]: 0.05 mmol/L
[LDL] Mean CFB [13]: 0.07 mmol/L
[LDL] Median CFB [13]: 0.10 mmol/L
[LDL] Mean CFB [14]: 0.05 mmol/L
[LDL] Median CFB [14]: 0.02 mmol/L
[LDL] Mean CFB [15]: 0.20 mmol/L
[LDL] Median CFB [15]: 0.18 mmol/L
[LDL] Mean CFB [16]: 0.15 mmol/L
[LDL] Median CFB [16]: 0.08 mmol/L
[LDL] Mean CFB [17]: 0.17 mmol/L
[LDL] Median CFB [17]: 0.12 mmol/L
[LDL] Mean CFB [18]: 0.31 mmol/L
[LDL] Median CFB [18]: 0.22 mmol/L
[LDL] Mean CFB [19]: 0.27 mmol/L
[LDL] Median CFB [19]: 0.26 mmol/L
[LDL] Mean CFB [20]: 0.00 mmol/L
[LDL] Median CFB [20]: -0.01 mmol/L
[LDL] Mean CFB [21]: -0.02 mmol/L
[LDL] Median CFB [21]: 0.02 mmol/L
[LDL] Mean CFB [22]: 0.02 mmol/L
[LDL] Median CFB [22]: -0.01 mmol/L
[LDL] Mean CFB [23]: 0.08 mmol/L
[LDL] Median CFB [23]: 0.13 mmol/L
[LDL] Mean CFB [24]: 0.16 mmol/L
[LDL] Median CFB [24]: 0.14 mmol/L
[LDL] Mean CFB [25]: 0.15 mmol/L
[LDL] Median CFB [25]: 0.12 mmol/L
[LDL] Mean CFB [26]: 0.14 mmol/L
[LDL] Median CFB [26]: 0.20 mmol/L
[LDL] Mean CFB [27]: 0.13 mmol/L
[LDL] Median CFB [27]: 0.14 mmol/L
[LDL] Mean CFB [28]: 0.11 mmol/L
[LDL] Median CFB [28]: 0.10 mmol/L
[LDL] Mean CFB [29]: 0.01 mmol/L
[LDL] Median CFB [29]: 0.02 mmol/L
[LDL] Mean CFB [30]: 0.13 mmol/L
[LDL] Median CFB [30]: 0.13 mmol/L
[LDL] Mean CFB [31]: 0.03 mmol/L
[LDL] Median CFB [31]: 0.04 mmol/L
[LDL] Mean CFB [32]: 0.12 mmol/L
[LDL] Median CFB [32]: 0.13 mmol/L
[LDL] Mean CFB [33]: -0.01 mmol/L
[LDL] Median CFB [33]: 0.03 mmol/L
[LDL] Mean CFB [34]: -0.01 mmol/L
[LDL] Median CFB [34]: 0.02 mmol/L
[LDL] Mean CFB [35]: 0.03 mmol/L
[LDL] Median CFB [35]: 0.03 mmol/L
[LDL] Mean CFB [36]: 0.13 mmol/L
[LDL] Median CFB [36]: 0.17 mmol/L
[LDL] Mean CFB [37]: 0.07 mmol/L
[LDL] Median CFB [37]: 0.16 mmol/L
[LDL] Mean CFB [38]: 0.13 mmol/L
[LDL] Median CFB [38]: 0.06 mmol/L
[LDL] Mean CFB [39]: -0.01 mmol/L
[LDL] Median CFB [39]: 0.22 mmol/L
[LDL] Mean percentage CFB - 24 weeks results (increased from 25 mg b.i.d. to 50 mg b.i.d at 12 weeks, week 1): 2.10%
[LDL] Mean percentage CFB - 24 weeks results (increased from 25 mg b.i.d. to 50 mg b.i.d at 12 weeks, week 2): 4.27%
[LDL] Mean percentage CFB - 24 weeks results (increased from 25 mg b.i.d. to 50 mg b.i.d at 12 weeks, week 4): −3.29%
[LDL] Mean percentage CFB - 24 weeks results (increased from 25 mg b.i.d. to 50 mg b.i.d at 12 weeks, week 8): −5.79%
[LDL] Mean percentage CFB - 24 weeks results (increased from 25 mg b.i.d. to 50 mg b.i.d at 12 weeks, week 12): −0.19%
[LDL] Mean percentage CFB - 24 weeks results (increased from 25 mg b.i.d. to 50 mg b.i.d at 12 weeks, week 16): 3.55%
[LDL] Mean percentage CFB - 24 weeks results (increased from 25 mg b.i.d. to 50 mg b.i.d at 12 weeks, week 20): −8.82%
[LDL] Mean percentage CFB - 24 weeks results (increased from 25 mg b.i.d. to 50 mg b.i.d at 12 weeks, week 24): 2.65%
[LDL] Mean percentage CFB - 24 weeks results (increased from 50 mg q.d. to 100 mg q.d. at 12 weeks, week 1): 0.31%
[LDL] Mean percentage CFB - 24 weeks results (increased from 50 mg q.d. to 100 mg q.d. at 12 weeks, week 2): 4.52%
[LDL] Mean percentage CFB - 24 weeks results (increased from 50 mg q.d. to 100 mg q.d. at 12 weeks, week 4): −1.68%
[LDL] Mean percentage CFB - 24 weeks results (increased from 50 mg q.d. to 100 mg q.d. at 12 weeks, week 8): 1.20%
[LDL] Mean percentage CFB - 24 weeks results (increased from 50 mg q.d. to 100 mg q.d. at 12 weeks, week 12): 2.96%
[LDL] Mean percentage CFB - 24 weeks results (increased from 50 mg q.d. to 100 mg q.d. at 12 weeks, week 16): 4.69%
[LDL] Mean percentage CFB - 24 weeks results (increased from 50 mg q.d. to 100 mg q.d. at 12 weeks, week 20): 3.51%
[LDL] Mean percentage CFB - 24 weeks results (increased from 50 mg q.d. to 100 mg q.d. at 12 weeks, week 24): 4.92%
[LDL] Mean percentage CFB - 24 weeks results (placebo switched to 50 mg b.i.d at week 12, week 16): 4.13%
[LDL] Mean percentage CFB - 24 weeks results (placebo switched to 50 mg b.i.d at week 12, week 20): 6.69%
[LDL] Mean percentage CFB - 24 weeks results (placebo switched to 50 mg b.i.d at week 12, week 24): 2.68%
[LDL] Mean percentage CFB - 24 weeks results (placebo switched to 100 mg q.d. at week 12, week 16): −2.85%
[LDL] Mean percentage CFB - 24 weeks results (placebo switched to 100 mg q.d. at week 12, week 20): −1.07%
[LDL] Mean percentage CFB - 24 weeks results (placebo switched to 100 mg q.d. at week 12, week 24): −8.19%
